What was measured:
[1] = target: T1, Testicular bovine hyaluronidase (Bos taurus, UniProt Q2YDK3); experiment: Hyaluronidase inhibition in vitro (chondroitin sulfate agar plate); type: biochemical; details: for % Inhibition: Conc. of Test Sol. 10 mg/ml; for inhibition at 1000 µg/mL: Conc. of Test Solution 1 mg/ml
T1 construct: purchased Sigma Chemical Company; host or cells: bovine testis
T1 sequence (Q2YDK3 36-553): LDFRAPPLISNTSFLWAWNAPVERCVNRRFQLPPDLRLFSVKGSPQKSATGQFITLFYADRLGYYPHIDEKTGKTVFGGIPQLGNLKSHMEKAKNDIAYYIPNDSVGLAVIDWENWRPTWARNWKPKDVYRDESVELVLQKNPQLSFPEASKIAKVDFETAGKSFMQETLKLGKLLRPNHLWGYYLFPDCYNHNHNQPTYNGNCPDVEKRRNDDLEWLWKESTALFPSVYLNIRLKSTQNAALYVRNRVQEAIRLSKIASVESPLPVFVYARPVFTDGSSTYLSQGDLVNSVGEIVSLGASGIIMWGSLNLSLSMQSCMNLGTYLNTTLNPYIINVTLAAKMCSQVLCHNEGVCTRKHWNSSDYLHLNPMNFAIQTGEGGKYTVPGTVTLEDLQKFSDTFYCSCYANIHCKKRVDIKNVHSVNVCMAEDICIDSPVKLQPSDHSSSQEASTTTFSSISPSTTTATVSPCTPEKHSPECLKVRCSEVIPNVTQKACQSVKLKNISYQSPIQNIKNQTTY
Protocol: The inhibition of hyaluronidase is assessed using chondroitin sulfate as the enzyme substrate according to the following procedure:
Agar plates containing chondroitin sulfate (0.1 percent) are prepared by the following method: water solutions of 1 percent agarose, 2 M sodium chloride (0.1 vol.), 1 M sodium acetate (pH 5.0, 0.1 vol), and sodium azide (0.5 mg./ml., 0.1 vol.) are mixed and the mixture is brought to the boiling temperature. […] After cooling to about 45° C., the resulting mixture (20 ml.) is poured onto a petri dish. The plates are allowed to cool to room temperature. A well 2 mm. in diameter is then cut in the agar surface. […] A control using only the buffer solution without added test compound is also run. The plates are then incubated overnight (about 16 hours) at 37° C. The zones of hydrolysis of chondroitin sulfate by hyaluronidase are visualized by flooding the plate with 10 percent cetyl trimethyl ammonium bromide. The area of the zone is logarithmically proportional to the concentration of hyaluronidase. Inhibitor activity is determined by comparing the area of hydrolysis from the test compound to the area of hydrolysis from the control. The results are expressed as percent inhibition calculated as follows: [formula]

[2] = target: T2, Acrosin (purified from boar sperm) (Sus scrofa, UniProt P08001); experiment: Acrosin inhibition in vitro (BAPNA substrate); type: biochemical; design: Inhibition (units/mg): dose or concentration left out as unconfirmed; details: for Inhibition (units/mg): other salts; for Inhibition (units/mg.): sodium salts
T2 construct: purified from boar sperm; from tissue; host or cells: boar sperm
Protocol: A control using the buffer solution without the test compound added is also run. A 200 μl-sample of the incubation mixture is then withdrawn and is added to a cuvette containing BAPNA (1 ml.) and triethanolamine buffer (2 ml.). The mixture is stirred and placed in a Gilford recording spectrophotometer. The increase in optical density at 383 nm is measured. One unit of acrosin activity is defined as the amount of acrosin which will cause an increase in optical density at 383 nm. of 0.001/minute. One unit of inhibitory activity is defined as the amount of inhibitor which will cause a reduction in the increase in optical density at 383 nm. of 0.001/minute.

[3] = sodium salts, Conc. of Test Solution 10 mg/ml
[4] = Conc. of Test Solution 10 Mg/ml

T2 sequence (P08001 40-338 limits assumed): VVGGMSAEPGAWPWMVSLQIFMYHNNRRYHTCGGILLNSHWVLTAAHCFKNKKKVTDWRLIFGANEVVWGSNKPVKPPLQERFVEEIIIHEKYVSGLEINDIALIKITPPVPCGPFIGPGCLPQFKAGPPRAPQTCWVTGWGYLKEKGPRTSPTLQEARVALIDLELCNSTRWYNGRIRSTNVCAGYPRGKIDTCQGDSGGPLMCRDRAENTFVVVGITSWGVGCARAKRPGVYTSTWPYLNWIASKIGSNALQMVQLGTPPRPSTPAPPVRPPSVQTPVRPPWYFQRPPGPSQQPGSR
T2 sequence (P08001 17-39 limits assumed): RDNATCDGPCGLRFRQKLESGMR

CCCCCCCCCCCCCCOS(=O)(=O)O [CH3 (CH2)13 Mg]
% Inhibition ([1]; other salts): 14%
Inhibition (units/mg) [2]: 59,000 units/mg

CCCCCCCC/C=C\CCCCCCCCOS(=O)(=O)O [oleyl]
inhibition at 1000 µg/mL ([1]; sodium salts): 0%
Inhibition (units/mg.) ([2]; Conc. of Test Solution 1 Mg/ml): 152,000 units/mg.

CCCCCCCCCCCOS(=O)(=O)O [n-hendecyl]
inhibition at 10000 µg/mL [1, 3]: 100%
Inhibition (units/mg.) [2, 4]: 0 units/mg.

CCCCCCCCCCCCCCCCCCOS(=O)(=O)O [n-octadecyl]
inhibition at 10000 µg/mL [1, 3]: 30%
Inhibition (units/mg.) [2, 4]: 26,000 units/mg.

CCCCCCCCCCCCCCCCCCCCCCCCCCCOS(=O)(=O)O [n-heptacosyl]
inhibition at 1000 µg/mL ([1]; sodium salts): 0%
Inhibition (units/mg.) ([2]; Conc. of Test Solution 1 Mg/ml): 100,000 units/mg.

CCCCCCCC(CCCCCC)OS(=O)(=O)O (stereo not drawn) [7-tetradecyl]
inhibition at 1000 µg/mL ([1]; sodium salts): 0%
Inhibition (units/mg.) ([2]; Conc. of Test Solution 1 Mg/ml): 112,000 units/mg.

CCCCCCCCCCCCOS(=O)(=O)[O-].[Na+] [n-dodecyl, Sodium lauryl sulfate]
inhibition at 10000 µg/mL [1, 3]: 71%

CCCCCCCCC(CCCCCCC)OS(=O)(=O)O (stereo not drawn) [8-hexadecyl]
inhibition at 1000 µg/mL ([1]; sodium salts): 0%
Inhibition (units/mg.) ([2]; Conc. of Test Solution 1 Mg/ml): 28,000 units/mg.

CCCCCCCCCC(CCCCCC)OS(=O)(=O)O (stereo not drawn) [7-hexadecyl]
inhibition at 1000 µg/mL ([1]; sodium salts): 0%
Inhibition (units/mg.) ([2]; Conc. of Test Solution 1 Mg/ml): 123,000 units/mg.

CCCCCCCCCCCCC(C)OS(=O)(=O)O (stereo not drawn) [2-tetradecyl]
inhibition at 1000 µg/mL ([1]; sodium salts): 100%
Inhibition (units/mg.) ([2]; Conc. of Test Solution 1 Mg/ml): 87,000 units/mg.

CCCCCCCCCCCCCCCCCCCCOS(=O)(=O)O [n-eicosyl]
inhibition at 10000 µg/mL [1, 3]: 0%
Inhibition (units/mg.) [2, 4]: 31,800 units/mg.

CC(C)CCCC(C)CCOS(=O)(=O)O (stereo not drawn) [tetrahydrogeranyl]
inhibition at 1000 µg/mL ([1]; sodium salts): 0%
Inhibition (units/mg.) ([2]; Conc. of Test Solution 1 Mg/ml): 240,000 units/mg.

CCCCCCCCCCCCCCOS(=O)(=O)O [CH3 (CH2)13 K]
% Inhibition ([1]; other salts): 27%
Inhibition (units/mg) [2]: 62,000 units/mg

CCCCCCCCCCCCCCCCCOS(=O)(=O)O [n-heptadecyl]
inhibition at 10000 µg/mL [1, 3]: 23%
Inhibition (units/mg.) [2, 4]: 18,300 units/mg.

CCCCCCCCCCCCCCCCCCCCCCCCOS(=O)(=O)O [n-tetracosyl]
inhibition at 1000 µg/mL ([1]; sodium salts): 0%
Inhibition (units/mg.) ([2]; Conc. of Test Solution 1 Mg/ml): 123,000 units/mg.

CCCCCCCCCCC(CCCCCCCC)COS(=O)(=O)O (stereo not drawn) [2-octyldodecyl]
inhibition at 1000 µg/mL ([1]; sodium salts): 0%
Inhibition (units/mg.) ([2]; Conc. of Test Solution 1 Mg/ml): 132,000 units/mg.

CCCCCCCCCCC(CCC)OS(=O)(=O)O (stereo not drawn) [4-tetradecyl]
inhibition at 1000 µg/mL ([1]; sodium salts): 0%
Inhibition (units/mg.) ([2]; Conc. of Test Solution 1 Mg/ml): 102,000 units/mg.

CCCCCCCCCCCCCCCCCCCCCCOS(=O)(=O)O [n-docosyl]
inhibition at 1000 µg/mL ([1]; sodium salts): 0%
Inhibition (units/mg.) ([2]; Conc. of Test Solution 1 Mg/ml): 300,000 units/mg.

CCCCCCCCCCCCCCOS(=O)(=O)O [CH3 (CH2)13 Ca]
% Inhibition ([1]; other salts): 38%
Inhibition (units/mg) [2]: 48,000 units/mg

CCCC/C=C/CCCCCCCCOS(=O)(=O)O [myristeladyl]
inhibition at 1000 µg/mL ([1]; sodium salts): 13%
Inhibition (units/mg.) ([2]; Conc. of Test Solution 1 Mg/ml): 216,000 units/mg.

CCCCCCCCC(CCCCC)OS(=O)(=O)O (stereo not drawn) [6-tetradecyl]
inhibition at 1000 µg/mL ([1]; sodium salts): 12%
Inhibition (units/mg.) ([2]; Conc. of Test Solution 1 Mg/ml): 90,000 units/mg.

CCCCCCCCCCCCCCCOS(=O)(=O)O [n-pentadecyl]
inhibition at 10000 µg/mL [1, 3]: 60%
Inhibition (units/mg.) [2, 4]: 14,300 units/mg.

CCCCCCCCCC(CCCCCCCC)OS(=O)(=O)O (stereo not drawn) [9-octadecyl]
inhibition at 1000 µg/mL ([1]; sodium salts): 7%
Inhibition (units/mg.) ([2]; Conc. of Test Solution 1 Mg/ml): 148,000 units/mg.

CCCCCCCCCCCCCCOS(=O)(=O)O [CH3 (CH2)13 NH4]
% Inhibition ([1]; other salts): 14%
Inhibition (units/mg) [2]: 47,000 units/mg

CC(C)CCCCCCCCCCCOS(=O)(=O)O [12-methyltridecyl]
inhibition at 1000 µg/mL ([1]; sodium salts): 7%
Inhibition (units/mg.) ([2]; Conc. of Test Solution 1 Mg/ml): 172,000 units/mg.

CCCCCCCCCCCCCOS(=O)(=O)O [n-tridecyl]
inhibition at 10000 µg/mL [1, 3]: 80%
Inhibition (units/mg.) [2, 4]: 3,200 units/mg.

CCCC/C=C\CCCCCCCCOS(=O)(=O)O [myristoleyl]
inhibition at 1000 µg/mL ([1]; sodium salts): 13%
Inhibition (units/mg.) ([2]; Conc. of Test Solution 1 Mg/ml): 160,000 units/mg.

CC(C)CCCC(C)CCCC(C)CCOS(=O)(=O)O (stereo not drawn) [3,7,11-trimethyldodecyl]
inhibition at 1000 µg/mL ([1]; sodium salts): 39%
Inhibition (units/mg.) ([2]; Conc. of Test Solution 1 Mg/ml): 29,000 units/mg.

CCCCCCCCCCCCCCCCOS(=O)(=O)O [n-hexadecyl]
inhibition at 10000 µg/mL [1, 3]: 75%
Inhibition (units/mg.) [2, 4]: 15,200 units/mg.

CCCCCCCCCCCCOS(=O)(=O)O [CH3 (CH2)11 diethanolammonium]
inhibition at 10000 µg/mL ([1]; 16 h, other salts, Conc. of Test Sol. 10 mg/ul): 100%
Inhibition (units/mg) [2]: 90,000 units/mg

CCCCC/C=C\C/C=C\CCCCCCCCOS(=O)(=O)O [linoleyl]
inhibition at 1000 µg/mL ([1]; sodium salts): 0%
Inhibition (units/mg.) ([2]; Conc. of Test Solution 1 Mg/ml): 210,000 units/mg.

CCCCCCCCCCCCCCOS(=O)(=O)O [CH3 (CH2)13 Li]
% Inhibition ([1]; other salts): 27%
Inhibition (units/mg) [2]: 58,000 units/mg
